According to US8470379B2, “Use of a potent product extracted from rhizomes of zingiber officinale in treating a disease associated with Helicobacter pylori” (Medical and Pharmaceutical Industry Technology and …, priority 2007, dated 2013):

Experiments:
[1] = test system: Helicobacter pylori (ATCC 43504); assay: Anti-microbial test: MIC by agar dilution method; type: cell-based; settings: ATCC43504, Columbia agar + 7% rabbit blood, 35° C., 72 hours, microaerophilic, highest concentration 300 μg/ml, read-out: Minimum inhibitory concentration (MIC)
Protocol: Minimum inhibitory concentration (MIC) of sample on Helicobacter pylori was determined by the agar dilution method [Malanosk G. J. et al. Effect of pH variation on the susceptibility of Helicobacter pylori to three marcolide antimicrobial agents and temafloxacin. Eur. J. Clin. Microbial Infect Dis. 12: pp. 131-133, 1993.]. The test substance was dissolved and serially diluted in DMSO to desired stock concentrations. For each concentration tested, a 0.01 ml aliquot is added to a 48-well plate containing 0.99 ml of Columbia agar base (Oxoid, England) supplemented 7% defibrinated rabbit blood. The inoculum of Helicobacter pylori (ATCC 43504) is prepared by suspending in brain heart infusion broth to a density of 5×10^5 CFU/ml. The final maximal concentration of DMSO is 1% and the initial test substance concentration is 300 μg/ml. The plates are incubated at 35° C. for 72 hours in the microaerophilic condition (Mixed gas N2 85%, CO2 10% and O2 5%) and then visually examined and scored positive (+) for inhibition of the colonies growth or negative (−) for no effect upon growth colonies. Vehicle-control and gentamicin are used as blank and positive controls, respectively. Each concentration is evaluated in duplicate.

[2] = test system: Helicobacter pylori-induced gastric ulcer; assay: Helicobacter pylori-induced gastric ulcer in mice; type: in vivo, male CD-1 (Crl.) derived mice; settings: 35 mg/kg orally for 7 days
Protocol: Effects of samples on Helicobacter pylori-induced gastric ulcer were evaluated as described previously [Marchetti, M., Arico, B., Burroni, D., Figura, N., Rappuoli, R. and Ghiara, P. Development of a mouse model of Helicobacter pylori infection that mimics human disease. Science 267: 1655-1658, 1995.]. Groups of 5 male CD-1 (Crl.) derived mice weighing 24±2 g were fasted for 18 hours prior to intragastric inoculation of clinical isolated Helicobacter pylori in suspension at 3.2×10^9 colony formation units/0.4 ml/mouse. Test samples and vehicle (2% CMC, 10 ml/kg) were each administered orally to test animals, starting one hour after the Helicobacter pylori inoculation, dosing twice daily (10:00 am and 4:00 pm) for 7 consecutive days. Omeprazole (1 mg/kg) and clarithromycin (10 mg/kg), in combination, were used for the positive control agents and administered orally to test animal once daily for 7 consecutive days under the same schedule. […] Gastric ulceration scored at four levels according to the degree of hemorrhage and severity of ulcerative lesions: • 0=normal appearance • 1=mild red spots • 2=moderate red spots and/or hemorrhage spots • 3=marked hemorrhage spots
Percentage inhibition on Helicobacter pylori-induced gastric ulcer was calculated as follows: (Scores of vehicle group−Scores of test group)/(Scores of vehicle group)×100% The results are shown in Table 3.

`CCCCC/C=C/C(=O)CCc1ccc(O)c(OC)c1` [Shogaol] showed an MIC [1] of 10 µg/mL.
With `CCCCC[C@H](O)CC(=O)CCc1ccc(O)c(OC)c1` [Sample 6-Gingerol, 6-Gingerol] the “Percentage inhibition on Helicobacter pylori-induced gastric ulcer” value [2] was 25% and the MIC [1] was 10 µg/mL.
